In patent publication US10584121B2 (Merck Sharp & Dohme Corp., priority 2015, dated 2020):

Test: Rat PK: plasma clearance after PO and IV dosing
Type: in vivo
Settings: fasted male Wistar Han rats; IV 0.5 mg/kg or 0.05 mg/kg; 20/60/20 DMSO/PEG400/H2O
Experimental: Experimental Procedure for Collecting Rat PK:
Pharmacokinetic parameters were determined following PO and IV dosing at 1 mg/kg and 0.5 mg/kg or 0.05 mg/kg respectively in fasted male Wistar Han rats. Compounds were formulated for both PO and IV dosing in 20/60/20 DMSO/PEG400/H2O. Plasma samples obtained from dosed animals were acidified by adding 30 μL of 2% formic acid to 100 μL of plasma to stabilize potential acyl-glucuronide metabolites. Sample clean-up was carried out by means of a single step protein precipitation technique by adding 200 μL of acetonitrile to 50 μL aliquots of individual subject samples. Samples were mixed by vortex for homogeneity and then subjected to centrifugation at 3500 rpm for 10 min. The supernatant (200 μL) was collected and an aliquot was injected into the LC-MS/MS for analysis. Pharmacokinetic parameters were calculated using established non-compartmental methods. The area under the plasma concentration versus time curve (AUC) was determined using the Watson software (version 7.3) or Phoenix Professional (version 6.2.1), with linear trapezoidal interpolation in the ascending slope and logarithmic trapezoidal interpolation in the descending slope. The portion of the AUC from the last measurable concentration to infinity was estimated from the equation, Ct/kel, where Ct represents the last measurable concentration and kel is the elimination rate constant. The latter was determined from the concentration versus time curve by linear regression at the terminal phase of the semi-logarithmic plot.

Rat plasma clearance (Clp) [mL/min/kg]	SMILES
76	O=C(O)c1ccc(-c2nn(C(=O)c3c(Cl)cccc3C(F)(F)F)c3cccnc23)c(F)c1 [historical compound, reference compound]

Same assay, conditions: rat, plasma; fasted male Wistar Han rats; IV 0.5 mg/kg or 0.05 mg/kg; 20/60/20 DMSO/PEG400/H2O; read-out: Rat plasma clearance (Clp)

SMILES	clearance [mL/min/kg]
O=C(O)c1ccc(-c2cn(C(=O)c3c(Cl)cccc3C3(C(F)(F)F)CC3)c3cccnc23)c(F)c1 [Example 1B, 4-(1-(2-chloro-6-(1-(trifluoromethyl)cyclopropyl)benzoyl)-1H-pyrrolo[3,2-b]pyridin-3-yl)-3-fluorobenzoic acid]	5
O=C(O)c1ccc(-c2nn(C(=O)c3c(C4(C(F)(F)F)CC4)ccc(F)c3Cl)c3cccnc23)c(F)c1 [Example 1F, 4-(1-(2-chloro-3-fluoro-6-(1-(trifluoromethyl)cyclopropyl)benzoyl)-1H-pyrazolo[4,3-b]pyridin-3-yl)-3-fluorobenzoic acid]	8
O=C(O)c1ccc(-c2nn(C(=O)c3c(C4(C(F)F)CC4)ccc(F)c3Cl)c3cccnc23)c(F)c1 [Example 1H, 4-(1-(2-chloro-6-(1-(difluoromethyl)cyclopropyl)-3-fluorobenzoyl)-1H-pyrazolo[4,3-b]pyridin-3-yl)-3-fluorobenzoic acid]	16
Cc1c(F)ccc(C2(C(F)(F)F)CC2)c1C(=O)n1nc(-c2ccc(C(=O)O)cc2F)c2ncccc21 [Example 1I, 3-fluoro-4-(1-(3-fluoro-2-methyl-6-(1-(trifluoromethyl)cyclopropyl)benzoyl)-1H-pyrazolo[4,3-b]pyridin-3-yl)benzoic acid]	18
O=C(O)c1ccc(-c2cn(C(=O)c3c(Cl)cccc3C3(C(F)F)CC3)c3cccnc23)c(F)c1 [Example 1J]	5

Continued, values first:

clearance [mL/min/kg]	SMILES
6	O=C(O)c1ccc(-c2nn(C(=O)c3c(Cl)cccc3C3(C(F)(F)F)CC3)c3cccnc23)c(F)c1 [Example 1A, 4-(1-(2-chloro-6-(1-(trifluoromethyl)cyclopropyl)benzoyl)-1H-pyrazolo[4,3-b]pyridin-3-yl)-3-fluorobenzoic acid]
21	Cc1cccc(C2(C(F)(F)F)CC2)c1C(=O)n1nc(-c2ccc(C(=O)O)cc2F)c2ncccc21 [Example 1C, 3-fluoro-4-(1-(2-methyl-6-(1-(trifluoromethyl)cyclopropyl)benzoyl)-1H-pyrazolo[4,3-b]pyridin-3-yl)benzoic acid]
10	O=C(O)c1ccc(-c2nn(C(=O)c3c(Cl)cccc3C3(C(F)F)CC3)c3cccnc23)c(F)c1 [Example 1D, 4-(1-(2-chloro-6-(1-(difluoromethyl)cyclopropyl)benzoyl)-1H-pyrazolo[4,3-b]pyridin-3-yl)-3-fluorobenzoic acid]
16	O=C(O)c1ccc(-c2nn(C(=O)c3c(Cl)cccc3C3(CF)CC3)c3cccnc23)c(F)c1 [Example 1E, 4-(1-(2-chloro-6-(1-(fluoromethyl)cyclopropyl)benzoyl)-1H-pyrazolo[4,3-b]pyridin-3-yl)-3-fluorobenzoic acid]
5	O=C(O)c1ccc(-c2nn(C(=O)c3c(C(F)F)cccc3C3(C(F)(F)F)CC3)c3cccnc23)c(F)c1 [Example 1G, 4-(1-(2-(difluoromethyl)-6-(1-(trifluoromethyl)cyclopropyl)benzoyl)-1H-pyrazolo[4,3-b]pyridin-3-yl)-3-fluorobenzoic acid]
